Laboratory results from patent US10189841B2, “Purinones as ubiquitin-specific protease 1 inhibitors” (Forma Therapeutics, Inc., priority 2015, dated 2019).

Target: USP1 (construct USP1 (I-785, GG670, 671AA)/UAF1 (I-677)-Flag) (Homo sapiens (Human), UniProt O94782, G670A/G671A)
Assay: Ubiquitin-Rhodamine 110 assay for USP1 activity
Assay type: biochemical
Conditions: USP1/UAF1 25 pM, Ub-Rh110 25 nM, 30 min preincubation
Outline: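 Two formats with the USP1/UAF1 complex and 25 nM ubiquitin-rhodamine 110 in pH 8.0 Tris buffer with calcium, glutathione and detergent. Single-point screening used 10 µM, 100 pM enzyme and 45 min. Inhibition was set against no-enzyme and DMSO wells.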

Sequence of USP1 (construct USP1 (I-785, GG670, 671AA)/UAF1 (I-677)-Flag) (O94782 whole entry G670A/G671A): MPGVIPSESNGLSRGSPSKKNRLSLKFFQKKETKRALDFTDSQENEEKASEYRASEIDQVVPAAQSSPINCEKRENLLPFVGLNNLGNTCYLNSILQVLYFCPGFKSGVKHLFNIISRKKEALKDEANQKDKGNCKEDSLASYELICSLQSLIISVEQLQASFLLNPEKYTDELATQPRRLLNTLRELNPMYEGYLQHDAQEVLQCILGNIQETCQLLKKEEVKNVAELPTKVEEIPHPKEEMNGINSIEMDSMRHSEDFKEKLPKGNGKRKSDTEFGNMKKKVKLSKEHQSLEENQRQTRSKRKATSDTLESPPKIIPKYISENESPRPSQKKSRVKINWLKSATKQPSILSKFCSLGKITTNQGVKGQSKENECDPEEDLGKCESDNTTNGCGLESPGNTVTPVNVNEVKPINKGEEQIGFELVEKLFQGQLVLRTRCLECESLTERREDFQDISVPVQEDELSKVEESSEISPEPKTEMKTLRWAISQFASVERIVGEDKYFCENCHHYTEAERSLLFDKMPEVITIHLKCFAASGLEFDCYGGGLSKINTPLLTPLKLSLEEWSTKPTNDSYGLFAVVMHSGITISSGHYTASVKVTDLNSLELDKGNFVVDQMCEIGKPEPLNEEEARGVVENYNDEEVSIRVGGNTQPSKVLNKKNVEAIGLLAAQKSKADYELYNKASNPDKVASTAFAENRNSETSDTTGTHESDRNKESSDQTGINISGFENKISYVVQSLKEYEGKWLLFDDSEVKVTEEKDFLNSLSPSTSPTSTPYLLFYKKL
Sequence of USP1 (construct USP1 (I-785, GG670, 671AA)/UAF1 (I-677)-Flag) (Q8TAF3 whole entry partner): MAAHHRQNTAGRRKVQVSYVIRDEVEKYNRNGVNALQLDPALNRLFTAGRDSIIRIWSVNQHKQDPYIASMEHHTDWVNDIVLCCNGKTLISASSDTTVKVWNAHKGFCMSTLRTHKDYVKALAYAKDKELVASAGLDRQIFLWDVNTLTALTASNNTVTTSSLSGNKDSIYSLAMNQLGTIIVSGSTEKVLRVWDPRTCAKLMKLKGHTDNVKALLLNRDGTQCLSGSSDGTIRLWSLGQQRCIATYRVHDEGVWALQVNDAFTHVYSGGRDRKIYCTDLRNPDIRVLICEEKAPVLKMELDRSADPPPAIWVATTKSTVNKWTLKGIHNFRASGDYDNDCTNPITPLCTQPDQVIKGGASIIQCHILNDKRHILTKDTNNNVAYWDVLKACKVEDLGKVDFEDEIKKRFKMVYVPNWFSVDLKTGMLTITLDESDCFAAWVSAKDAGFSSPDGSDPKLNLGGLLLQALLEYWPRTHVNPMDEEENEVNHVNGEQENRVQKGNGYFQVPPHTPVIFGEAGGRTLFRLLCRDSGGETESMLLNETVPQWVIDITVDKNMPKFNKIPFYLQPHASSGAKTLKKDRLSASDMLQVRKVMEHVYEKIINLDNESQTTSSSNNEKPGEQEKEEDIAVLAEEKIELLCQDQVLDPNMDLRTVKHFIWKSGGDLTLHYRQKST

Row | Structure (SMILES) | IC50 [nM]
1 | CC(C)c1ncccc1-c1ncc2c(n1)n([C@H](C)c1ccc(-c3nc(C(F)(F)F)cn3C)cc1)c(=O)n2C [Compound I-115, (R)-2-(2-isopropylpyridin-3-yl)-7-methyl-9-(1-(4-(1-methyl-4-(trifluoromethyl)-1H-imidazol-2-yl)phenyl)ethyl)-7,9-dihydro-8H-purin-8-one] | < 50
2 | CC(C)c1ncccc1-c1ncc2c(n1)n([C@@H](C)c1ccc(-c3nc(C(F)(F)F)cn3C)cc1)c(=O)n2C [Compound I-116, (S)-2-(2-isopropylpyridin-3-yl)-7-methyl-9-(1-(4-(1-methyl-4-(trifluoromethyl)-1H-imidazol-2-yl)phenyl)ethyl)-7,9-dihydro-8H-purin-8-one] | < 50
3 | CC(C)c1ncccc1-c1ncc2c(n1)n(Cc1ccc(-n3nc(C(F)(F)F)cc3N3CCOCC3)cc1)c(=O)n2C [Compound I-117, 2-(2-isopropylpyridin-3-yl)-7-methyl-9-(4-(5-morpholino-3-(trifluoromethyl)-1H-pyrazol-1-yl)benzyl)-7,9-dihydro-8H-purin-8-one] | < 50
4 | COc1cc(C)n(-c2ccc(Cn3c(=O)n(C)c4cnc(-c5cccnc5C(C)C)nc43)cc2)n1 [Compound I-118, 2-(2-isopropylpyridin-3-yl)-9-(4-(3-methoxy-5-methyl-1H-pyrazol-1-yl)benzyl)-7-methyl-7,9-dihydro-8H-purin-8-one] | < 50
5 | CC(C)c1ncccc1-c1ncc2c(n1)n(Cc1ccc(-c3nc(C(F)(F)F)cn3C)cc1)c(=O)n2C1COC1 [Compound I-119, 2-(2-isopropylpyridin-3-yl)-9-(4-(1-methyl-4-(trifluoromethyl)-1H-imidazol-2-yl)benzyl)-7-(oxetan-3-yl)-7,9-dihydro-8H-purin-8-one] | 50 to 200
6 | COCCn1c(=O)n(Cc2ccc(-c3nc(C(F)(F)F)cn3C)cc2)c2nc(-c3cccnc3C(C)C)ncc21 [Compound I-120, 2-(2-isopropylpyridin-3-yl)-7-(2-methoxyethyl)-9-(4-(1-methyl-4-(trifluoromethyl)-1H-imidazol-2-yl)benzyl)-7,9-dihydro-8H-purin-8-one] | < 50
7 | CC(C)c1ncccc1-c1ncc2c(n1)n(Cc1ccc(-c3nc(C(F)(F)F)cn3C)cc1)c(=O)n2C1CS(=O)(=O)C1 [Compound I-121, 7-(1,1-dioxidothietan-3-yl)-2-(2-isopropylpyridin-3-yl)-9-(4-(1-methyl-4-(trifluoromethyl)-1H-imidazol-2-yl)benzyl)-7,9-dihydro-8H-purin-8-one] | 200 to 2000
8 | CC(C)c1ncccc1-c1ncc2c(n1)n(Cc1ccc(-c3nc(C(F)(F)F)cn3C)cc1)c(=O)n2C1CCOCC1 [Compound I-122, 2-(2-isopropylpyridin-3-yl)-9-(4-(1-methyl-4-(trifluoromethyl)-1H-imidazol-2-yl)benzyl)-7-(tetrahydro-2H-pyran-4-yl)-7,9-dihydro-8H-purin-8-one] | 200 to 2000
9 | CC(C)c1ncccc1-c1ncc2c(n1)n(Cc1ccc(-c3nc(C(F)(F)F)cn3C)cc1)c(=O)n2CCO [Compound I-123, 7-(2-hydroxyethyl)-2-(2-isopropylpyridin-3-yl)-9-(4-(1-methyl-4-(trifluoromethyl)-1H-imidazol-2-yl)benzyl)-7,9-dihydro-8H-purin-8-one] | 50 to 200
10 | CC(C)c1ncccc1-c1ncc2c(n1)n(Cc1ccc(-c3nc(C(F)(F)F)cn3C3COC3)cc1)c(=O)n2C [Compound I-124, 2-(2-isopropylpyridin-3-yl)-7-methyl-9-(4-(1-(oxetan-3-yl)-4-(trifluoromethyl)-1H-imidazol-2-yl)benzyl)-7,9-dihydro-8H-purin-8-one] | 50 to 200
11 | CC(C)c1ncccc1-c1ncc2c(n1)n(Cc1cc(F)c(-c3nc(C(F)(F)F)cn3C)c(F)c1)c(=O)n2C [Compound I-125, 9-(3,5-difluoro-4-(1-methyl-4-(trifluoromethyl)-1H-imidazol-2-yl)benzyl)-2-(2-isopropylpyridin-3-yl)-7-methyl-7,9-dihydro-8H-purin-8-one] | 50 to 200
12 | CC(C)c1ncccc1-c1ncc2c(n1)n(Cc1ccc(-c3nc(C(F)(F)F)cn3C)c(F)c1)c(=O)n2C [Compound I-126, 9-(3-fluoro-4-(1-methyl-4-(trifluoromethyl)-1H-imidazol-2-yl)benzyl)-2-(2-isopropylpyridin-3-yl)-7-methyl-7,9-dihydro-8H-purin-8-one] | < 50
13 | CC(C)c1ncccc1-c1ncc2c(n1)n(Cc1ccc(-c3nc(C(F)(F)F)cn3C)cc1F)c(=O)n2C [Compound I-127, 9-(2-fluoro-4-(1-methyl-4-(trifluoromethyl)-1H-imidazol-2-yl)benzyl)-2-(2-isopropylpyridin-3-yl)-7-methyl-7,9-dihydro-8H-purin-8-one] | 50 to 200
14 | CC(C)c1ncccc1-c1ncc2c(n1)n(Cc1c(F)cc(-c3nc(C(F)(F)F)cn3C)cc1F)c(=O)n2C [Compound I-128, 9-(2,6-difluoro-4-(1-methyl-4-(trifluoromethyl)-1H-imidazol-2-yl)benzyl)-2-(2-isopropylpyridin-3-yl)-7-methyl-7,9-dihydro-8H-purin-8-one] | 50 to 200
15 | [2H]C([2H])([2H])n1c(=O)n(Cc2ccc(-c3nc(C(F)(F)F)cn3C)cc2)c2nc(-c3cccnc3C(C)C)ncc21 [Compound I-129, 2-(2-isopropylpyridin-3-yl)-7-(methyl-d3)-9-(4-(1-methyl-4-(trifluoromethyl)-1H-imidazol-2-yl)benzyl)-7,9-dihydro-8H-purin-8-one] | < 50
16 | [2H]C([2H])([2H])n1cc(C(F)(F)F)nc1-c1ccc(Cn2c(=O)n(C([2H])([2H])[2H])c3cnc(-c4cccnc4C(C)C)nc32)cc1 [Compound I-130, 2-(2-isopropylpyridin-3-yl)-7-(methyl-d3)-9-(4-(1-(methyl-d3)-4-(trifluoromethyl)-1H-imidazol-2-yl)benzyl)-7,9-dihydro-8H-purin-8-one] | < 50
17 | [2H]C([2H])([2H])n1cc(C(F)(F)F)nc1-c1ccc(Cn2c(=O)n(C)c3cnc(-c4cccnc4C(C)C)nc32)cc1 [Compound I-131, 2-(2-isopropylpyridin-3-yl)-7-methyl-9-(4-(1-(methyl-d3)-4-(trifluoromethyl)-1H-imidazol-2-yl)benzyl)-7,9-dihydro-8H-purin-8-one] | < 50
18 | Cn1cc(C(F)(F)F)nc1-c1ccc(Cn2c(=O)n(C)c3cnc(-c4ccccc4C(C)(C)O)nc32)cc1 [Compound I-132, 2-(2-(2-hydroxypropan-2-yl)phenyl)-7-methyl-9-(4-(1-methyl-4-(trifluoromethyl)-1H-imidazol-2-yl)benzyl)-7,9-dihydro-8H-purin-8-one] | < 50
19 | Cn1cc(C(F)(F)F)nc1-c1ccc(Cn2c(=O)n(C)c3cnc(-c4cccnc4N4CCOCC4)nc32)cc1 [Compound I-133, 7-methyl-9-(4-(1-methyl-4-(trifluoromethyl)-1H-imidazol-2-yl)benzyl)-2-(2-morpholinopyridin-3-yl)-7,9-dihydro-8H-purin-8-one] | 200 to 2000
20 | Cn1cc(C(F)(F)F)nc1-c1ccc(Cn2c(=O)n(C)c3cnc(-c4cccnc4N4CC(F)C4)nc32)cc1 [Compound I-134, 2-(2-(3-fluoroazetidin-1-yl)pyridin-3-yl)-7-methyl-9-(4-(1-methyl-4-(trifluoromethyl)-1H-imidazol-2-yl)benzyl)-7,9-dihydro-8H-purin-8-one] | 50 to 200
21 | Cn1cc(C(F)(F)F)nc1-c1ccc(Cn2c(=O)n(C)c3cnc(-c4cccnc4N4CC(F)(F)C4)nc32)cc1 [Compound I-135, 2-(2-(3,3-difluoroazetidin-1-yl)pyridin-3-yl)-7-methyl-9-(4-(1-methyl-4-(trifluoromethyl)-1H-imidazol-2-yl)benzyl)-7,9-dihydro-8H-purin-8-one] | 50 to 200
22 | Cn1cc(C(F)(F)F)nc1-c1ccc(Cn2c(=O)n(C)c3cnc(-c4cccnc4N4CC(C(F)(F)F)C4)nc32)cc1 [Compound I-136, 7-methyl-9-(4-(1-methyl-4-(trifluoromethyl)-1H-imidazol-2-yl)benzyl)-2-(2-(3-(trifluoromethyl)azetidin-1-yl)pyridin-3-yl)-7,9-dihydro-8H-purin-8-one] | 50 to 200
23 | Cn1cc(C(F)(F)F)nc1-c1ccc(Cn2c(=O)n(C)c3cnc(-c4cccnc4OC4CC4)nc32)cc1 [Compound I-137, 2-(2-cyclopropoxypyridin-3-yl)-7-methyl-9-(4-(1-methyl-4-(trifluoromethyl)-1H-imidazol-2-yl)benzyl)-7,9-dihydro-8H-purin-8-one] | < 50
24 | CC(C)c1ccccc1-c1ncc2[nH]c(=O)n(Cc3ccc(-c4nc(C(F)(F)F)cn4C)cc3)c2n1 [Compound I-138, 2-(2-Isopropylphenyl)-9-(4-(1-methyl-4-(trifluoromethyl)-1H-imidazol-2-yl)benzyl)-7,9-dihydro-8H-purin-8-one] | < 50
25 | CC(C)c1ccccc1-c1ncc2[nH]c(=O)n(Cc3ccc(-n4ccnn4)cc3)c2n1 [Compound I-139, 9-(4-(1H-1,2,3-triazol-1-yl)benzyl)-2-(2-isopropylphenyl)-7,9-dihydro-8H-purin-8-one] | 50 to 200
26 | CC(C)c1ccccc1-c1ncc2[nH]c(=O)n(Cc3ccc(-n4nccn4)cc3)c2n1 [Compound I-140, 9-(4-(2H-1,2,3-triazol-2-yl)benzyl)-2-(2-isopropylphenyl)-7,9-dihydro-8H-purin-8-one] | 50 to 200
27 | CC(C)c1ccccc1-c1ncc2[nH]c(=O)n([C@@H](C)c3ccc(-n4nccn4)cc3)c2n1 [Compound I-141, (S)-9-(1-(4-(2H-1,2,3-triazol-2-yl)phenyl)ethyl)-2-(2-isopropylphenyl)-7,9-dihydro-8H-purin-8-one] | 200 to 2000
28 | CC(C)c1ccccc1-c1ncc2[nH]c(=O)n([C@H](C)c3ccc(-n4nccn4)cc3)c2n1 [Compound I-142, (R)-9-(1-(4-(2H-1,2,3-triazol-2-yl)phenyl)ethyl)-2-(2-isopropylphenyl)-7,9-dihydro-8H-purin-8-one] | 200 to 2000
